Source: patent US8859819B2, “Sulphurated derivatives of resorcinol, preparation of same and cosmetic uses thereof” (Pierre Fabre Dermo-Cosmetique, priority 2009, dated 2014)
Read-outs that look alike come from different tables or passages of the source.

Assays:
B16-F10 cells = assay: Melanin assay test in B16-F10 cells; assay type: cell-based, murine
Procedure: B) Melanin Assay Test in B16-F10 Cells:
This involves a test of measuring the synthesis of melanin by colorimetric assay on a murine melanoma cell line: the B16-F10 line. This test makes it possible to evaluate the depigmenting power of active ingredients.
The B16-F10 cells are cultured in 96-well plates in DMEM medium supplemented with FCS (foetal calf serum), and incubated for 24 hours at 37° C., 5% CO2. The cells are then stimulated with 0.1 μM α-MSH (to stimulate the synthesis of melanin, the stimulation observed is around 150%) and treated for 72 hours with the active ingredients to be tested. Each concentration of active ingredient is tested at least in triplicate. The total melanin followed by the intracellular melanin dissolved in the lysis buffer are then assayed by absorbance reading at 405 nm. The total proteins are assayed in the lysate and the results are expressed in mg melanin/mg proteins. The percentage of activity is calculated as follows: […]
A negative value indicates an inhibition, whereas a positive value indicates an induction of the synthesis of melanin.
• B16-F10 cell line between P10 and P20 (murine melanocytes) (ATCC, CRL-6475)
Reagents: • DMEM without phenol red (GibcoBRL, 31053-028), 200 mM Glutamax-I Supplement (GibcoBRL, 35050-038), D-PBS (GibcoBRL, 14190-094), Foetal calf serum (Invitrogen, 10270-098), Trypsine-EDTA (GibcoBRL, 25300-054), NaOH (Sigma, S8045-500G), DMSO (Sigma, 471267-1L), Nle, Phe—Melanocyte Stimulating Hormone (Sigma, M-8764), Melanin (Sigma, M-0418), BCA-Copper (Sigma, B9643 and C2284), BSA (Sigma, P0914) C) Test for the Study of the Antioxidant Capacity by Chemiluminescence (Photochem Analytik Jena) Principle: […]

mushroom tyrosinase = target: T1, mushroom tyrosinase (Agaricus bisporus, UniProt C7FF04); assay: Tyrosinase inhibition test (in vitro acellular depigmenting activity); assay type: biochemical; details: for Tyrosinase depigmenting activity result: class symbol, assay from 250 to 150 μM, overall tyrosinase activity (MPMOg), L-tyrosine substrate
T1 construct: purchased Sigma T-3824
T1 sequence (C7FF04 1-392 limits assumed): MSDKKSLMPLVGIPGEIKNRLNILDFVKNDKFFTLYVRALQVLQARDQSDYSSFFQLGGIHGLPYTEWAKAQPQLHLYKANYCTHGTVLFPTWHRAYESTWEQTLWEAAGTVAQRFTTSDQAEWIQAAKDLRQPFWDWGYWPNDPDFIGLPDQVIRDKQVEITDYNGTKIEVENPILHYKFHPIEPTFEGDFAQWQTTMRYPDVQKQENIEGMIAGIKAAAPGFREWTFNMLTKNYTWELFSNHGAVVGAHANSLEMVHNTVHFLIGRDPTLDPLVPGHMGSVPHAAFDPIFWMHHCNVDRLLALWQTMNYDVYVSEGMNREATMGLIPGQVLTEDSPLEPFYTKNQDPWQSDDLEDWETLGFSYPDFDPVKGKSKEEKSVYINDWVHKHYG
Text: A) Determination of the Depigmenting Activity in an in vitro Acellular Test: Tyrosinase Inhibition Test)
This test is used to evaluate the depigmenting activity of the molecules tested. Tyrosinase is a limiting enzyme in melanogenesis.
It belongs to the family of oxydoreductases. It has in particular the function: monophenol monooxygenase (MPMO) and polyphenol oxidase (PPO).
It is synthesised at the level of the melanocytes. It is activated during its migration towards melanosome […]. It transforms tyrosine into DOPA then dopaquinone, which leads in fine to a polymerisation, i.e. a production of pigments (see diagram below).
The substrate: L-tyrosine, is transformed into L-DOPA by the monophenol mono oxygenase function which is transformed by the polyphenol oxidase function from tyrosinase into dopaquinone. The latter is going to self-oxidise into dopachrome which is measured by spectrophotometry at 490 nm.
More precisely, it is the overall tyrosinase activity (MPMOg) which is measured since it is the dopachrome in fine that is assayed. Thus the products tested on MPMOg (=measurement of the activity on PPO and MPMO) can cumulate the inhibition of the 2 functions, • inhibiting uniquely the MPMO function stricto sensus (transformation of tyrosine into DOPA) as a complement to the PPO test, • could inhibit PPO uniquely. General Experimental Conditions:

[1] = Protection of linoleic acid following a UV stress (Fenton conditions, MDA-TBA assay); parameters: % Protection Linoleic acid under UV/Fenton: concentration or dose not given beside the values; details: UV + H2O2 + iron II
Text: D) Test of Protection of Linoleic Acid Following a UV Stress. Target: Protection of Linoleic Acid Under Fenton Conditions, UV Irradiation Linoleic acid belongs to the family of polyunsaturated fatty acids (PUFA) (AGPI). Sensitive to oxidation, linoleic acid is a favoured target for oxygenated free radicals (OFR) in biological media. When biological membranes are exposed to an oxidative stress, the components the most affected are the phospholipids constituted of PUFA and cholesterol. Their degradation leads to lipidic peroxidation and generally to destructuring. Lipidic peroxidation is a self-catalysing process which generally involves OFR. Lipidic peroxidation is in part responsible for skin ageing. The method employed to evaluate lipid peroxidation is based on the coupling of thiobarbituric acid (TBA) and secondary degradation products leading to coloured compounds detectable by spectrofluorometry. The essential secondary compound of final degradation is malondialdehyde, MDA. MDA is a carcinogenic and mutagenic aldehyde, it acts on proteins and DNA. The sample to be tested is placed in contact with linoleic acid in a weight/weight ratio. The sample undergoes an MED (Minimal Erythemal Dose) irradiation under Fenton conditions, namely in the presence of H202 and iron II in a solar simulator. Following irradiation, the reaction mixture is taken up in methanol and derivatised at 90° C. with TBA. Chromogene, the MDA-TBA complex, representative of the equimolar production of MDA is assayed by fluorimetry (excitation at 525 nm, emission at 549 nm). The results are expressed in fluorescence units, as a function of a MDA-TBA control range then expressed as concentration of the MDA-TBA complex. Then, the percentage of the starting MDA/linoleic acid (LA) ratio is determined. Then the percentage of protection of linoleic acid is determined. The product assay is expressed as weight/weight ratio, in other words in weight percentage with respect to the total quantity of linoleic acid. The maximal MDA level is determined by the condition UV+H202+iron II (F). The percentage of protection of linoleic acid represents: the % ratio of MDA under maximal stress conditions untreated over the % of MDA under stress conditions treated by the product.

[2] = Antioxidant capacity by chemiluminescence (Photochem Analytik Jena); details: Trolox equivalent; lower = stronger antioxidant
Procedure: This test is used to determine the antioxidant capacity of the molecules. It is a method that generates free radicals by a photochemical signal. The intensity of the oxidation is 1000 times greater than that obtained under normal conditions.
The detection is carried out by chemiluminescence. It enables the evaluation of hydrosoluble and liposoluble anti-oxidant molecules or extracts.
The results are expressed respectively in equivalent quantity of vitamin C or Trolox (6-hydroxy-2,5,7,8-tetramethylchroman-2-carboxylic acid). The sensitivity is of the order of a nanomole.
The antioxidant activity studied in this test represents the capacity to trap specifically superoxide anions by chemiluminescence.
The quantified results are expressed in Trolox equivalent (standard), i.e. in “μg of product for 1 μg of Trolox”. This signifies that a quantity×of sample is needed to obtain an activity equivalent to the activity detected for 1 μg of standard. It is an anti-oxidant power relative to a reference, which makes it possible to disregard the concentration tested.
The superoxide radical: 02^0− is generated by a photochemical reaction: L+hv (UV)+O2→L*O2→L^0++O2^0−
A part of the superoxide anions is quenched by the anti-oxidants. The remaining free radicals are quantified by chemiluminescence. L^0++O2^0−→N2+AP*^2−→AP^2−+hv (luminescence)

[3] = Mus musculus, B16-F10, 72 h, read-out: B16 activity results -% at X μM
[4] = Mus musculus, B16-F10, 50 μM, α-MSH stimulated, 72 hours, negative value = inhibition of melanin synthesis, read-out: B16 activity results -% at X μM

Compound | Tyrosinase depigmenting activity result (mushroom tyrosinase) | B16 activity results -% at X μM (B16-F10 cells; 14 μM, α-MSH stimulated, 72 hours, negative value = inhibition) | % Protection Linoleic acid under UV/Fenton [1] [%] | μg of sample for 1 μg of Trolox [2] | inhibition at 20 µM (B16-F10 cells; [3]) [%] | inhibition at 10 µM (B16-F10 cells; [3]) [%] | inhibition at 92 µM (B16-F10 cells; Mus musculus, B16-F10, 92 μM, α-MSH stimulated, 72 hours, negative value = inhibition, read-out: B16 activity results -% at X μM) [%] | inhibition at 50 µM (B16-F10 cells; [4]) [%] | inhibition at 50 µM (B16-F10 cells; [3]) [%] | inhibition at 73 µM (B16-F10 cells; Mus musculus, B16-F10, 73 μM, α-MSH stimulated, 72 hours, negative value = inhibition, read-out: B16 activity results -% at X μM) [%] | IC50 (mushroom tyrosinase) [µM]
CC(C)=CCOc1cc(O)ccc1Sc1ccc(O)cc1O [Example 3, 4-(4-hydroxy-2-(3-methylbut-2-enyloxy)phenylthio)benzene-1,3-diol] | + + + |  | 87 | 4.7 μg of sample for 1 μg of Trolox | 41 |  |  |  |  |  | 
CC(C)=CCC/C(C)=C/COc1cc(O)ccc1Sc1ccc(O)cc1O [Example 4, (E)-4-(2-(3,7-dimethylocta-2,6-dienyloxy)-4-hydroxyphenylthio)benzene-1,3-diol] | + + + |  | 89 | 5.2 μg of sample for 1 μg of Trolox |  | 35 |  |  |  |  | 
Oc1ccc(Sc2ccc(O)cc2OCc2ccccc2)c(O)c1 [Example 9, 4-(2-(benzyloxy)-4-hydroxyphenylthio)benzene-1,3-diol] | + + + |  | 85 | 3.2 μg of sample for 1 μg of Trolox | 31 |  |  |  |  |  | 
Oc1ccc(Sc2ccc(OCc3ccccc3)cc2O)c(O)c1 [Example 10, 4-(4-(benzyloxy)-2-hydroxyphenylthio)benzene-1,3-diol] | + + + |  | 94 | 22 μg of sample for 1 μg of Trolox | 20 |  |  |  |  |  | 
COc1ccc(COc2cc(O)ccc2Sc2ccc(O)cc2O)cc1 [Example 11, 4-(4-hydroxy-2-(4-methoxybenzyloxy)phenylthio)benzene-1,3-diol] | + + + |  | 91 | 3.5 μg of sample for 1 μg of Trolox | 34 |  |  |  |  |  | 
CC(C)CC(=O)Oc1cc(O)ccc1Sc1ccc(O)cc1O [Example 19, 2-(2,4-dihydroxyphenylthio)-5-hydroxyphenyl 3-methylbutanoate] | + + + |  | 88 | 2.8 μg of sample for 1 μg of Trolox |  |  |  | 20 |  |  | 
CC(C)CC(=O)Oc1ccc(Sc2ccc(O)cc2O)c(O)c1 [Example 20, 4-(2,4-dihydroxyphenylthio)-3-hydroxyphenyl 3-methylbutanoate] | + + + |  | 91 | 25.6 μg of sample for 1 μg of Trolox |  |  |  | 24 |  |  | 
CCCCCCCCNC(=O)Oc1cc(O)ccc1Sc1ccc(O)cc1O [Example 24, 2-(2,4-dihydroxyphenylthio)-5-hydroxyphenyl octylcarbamate] | + + + |  | 97 | 3.8 μg of sample for 1 μg of Trolox |  |  |  |  | 26 |  | 
[O-][S+](c1ccc(O)cc1O)c1ccc(O)cc1O [Example 25, 4,4′sulphinyldibenzene-1,3-diol] | + + + |  | 79 | 73 μg of sample for 1 μg of Trolox |  |  |  |  |  | 50 | 12

Further lines, with some results ahead:

Tyrosinase depigmenting activity result (mushroom tyrosinase) | Compound | B16 activity results -% at X μM (B16-F10 cells; 14 μM, α-MSH stimulated, 72 hours, negative value = inhibition) | % Protection Linoleic acid under UV/Fenton [1] [%] | μg of sample for 1 μg of Trolox [2] | inhibition at 20 µM (B16-F10 cells; [3]) [%] | inhibition at 10 µM (B16-F10 cells; [3]) [%] | inhibition at 92 µM (B16-F10 cells; Mus musculus, B16-F10, 92 μM, α-MSH stimulated, 72 hours, negative value = inhibition, read-out: B16 activity results -% at X μM) [%] | inhibition at 50 µM (B16-F10 cells; [4]) [%] | inhibition at 50 µM (B16-F10 cells; [3]) [%] | inhibition at 73 µM (B16-F10 cells; Mus musculus, B16-F10, 73 μM, α-MSH stimulated, 72 hours, negative value = inhibition, read-out: B16 activity results -% at X μM) [%] | IC50 (mushroom tyrosinase) [µM]
+ + | CC(C)=CCC/C=C(\C)CC/C(C)=C/COc1cc(O)ccc1Sc1ccc(O)cc1O [Example 2, 4-(4-hydroxy-2-((2E,6E)-3,6,11-trimethyldodcca-2,6,10-trienyloxy)phenylthio)benzene-1,3-diol] | −50% (14 μM) | 92 | 9.7 μg of sample for 1 μg of Trolox |  |  |  |  |  |  | 
+ + + | CCCCCCCCOc1ccc(Sc2ccc(O)cc2O)c(O)c1 [Example 8, 4-(2-hydroxy-4-(octyloxy)phenylthio)benzene-1,3-diol] |  | 97 | 18.8 μg of sample for 1 μg of Trolox |  | 40 |  |  |  |  | 
+ + | CCCCCCCC(=O)Oc1cc(O)ccc1Sc1ccc(O)cc1O [Example 15, 2-(2,4-dihydroxyphenylthio)-5-hydroxyphenyl octanoate] |  | 75 | 30 μg of sample for 1 μg of Trolox |  | 20 |  |  |  |  | 
+ + + | O=C(CCc1ccccc1)Oc1cc(O)ccc1Sc1ccc(O)cc1O [Example 17, 2-(2,4-dihydroxyphenylthio)-5-hydroxyphenyl 3-phenylpropanoate] |  | 87 | 3.9 μg of sample for 1 μg of Trolox |  |  | 50 |  |  |  | 
+ + + | O=C(CCc1ccccc1)Oc1ccc(Sc2ccc(O)cc2O)c(O)c1 [Example 18, 4-(2,4-dihydroxyphenylthio)-3-hydroxyphenyl 3-phenylpropanoate] |  | 90 | 24.1 μg of sample for 1 μg of Trolox |  |  |  | 20 |  |  | 
